What was measured:
[1] = molecular target: T1, GST–LRRK2[G2019S]-(1326–2527) (Homo sapiens, UniProt Q5S007, G2019S); experiment: Peptide kinase assay with inhibitors; assay type: biochemical; conditions: for inhibition of LRRK2[G2019S] (in words): 100 μM ATP
T1 sequence (Q5S007 1326-2527 G2019S): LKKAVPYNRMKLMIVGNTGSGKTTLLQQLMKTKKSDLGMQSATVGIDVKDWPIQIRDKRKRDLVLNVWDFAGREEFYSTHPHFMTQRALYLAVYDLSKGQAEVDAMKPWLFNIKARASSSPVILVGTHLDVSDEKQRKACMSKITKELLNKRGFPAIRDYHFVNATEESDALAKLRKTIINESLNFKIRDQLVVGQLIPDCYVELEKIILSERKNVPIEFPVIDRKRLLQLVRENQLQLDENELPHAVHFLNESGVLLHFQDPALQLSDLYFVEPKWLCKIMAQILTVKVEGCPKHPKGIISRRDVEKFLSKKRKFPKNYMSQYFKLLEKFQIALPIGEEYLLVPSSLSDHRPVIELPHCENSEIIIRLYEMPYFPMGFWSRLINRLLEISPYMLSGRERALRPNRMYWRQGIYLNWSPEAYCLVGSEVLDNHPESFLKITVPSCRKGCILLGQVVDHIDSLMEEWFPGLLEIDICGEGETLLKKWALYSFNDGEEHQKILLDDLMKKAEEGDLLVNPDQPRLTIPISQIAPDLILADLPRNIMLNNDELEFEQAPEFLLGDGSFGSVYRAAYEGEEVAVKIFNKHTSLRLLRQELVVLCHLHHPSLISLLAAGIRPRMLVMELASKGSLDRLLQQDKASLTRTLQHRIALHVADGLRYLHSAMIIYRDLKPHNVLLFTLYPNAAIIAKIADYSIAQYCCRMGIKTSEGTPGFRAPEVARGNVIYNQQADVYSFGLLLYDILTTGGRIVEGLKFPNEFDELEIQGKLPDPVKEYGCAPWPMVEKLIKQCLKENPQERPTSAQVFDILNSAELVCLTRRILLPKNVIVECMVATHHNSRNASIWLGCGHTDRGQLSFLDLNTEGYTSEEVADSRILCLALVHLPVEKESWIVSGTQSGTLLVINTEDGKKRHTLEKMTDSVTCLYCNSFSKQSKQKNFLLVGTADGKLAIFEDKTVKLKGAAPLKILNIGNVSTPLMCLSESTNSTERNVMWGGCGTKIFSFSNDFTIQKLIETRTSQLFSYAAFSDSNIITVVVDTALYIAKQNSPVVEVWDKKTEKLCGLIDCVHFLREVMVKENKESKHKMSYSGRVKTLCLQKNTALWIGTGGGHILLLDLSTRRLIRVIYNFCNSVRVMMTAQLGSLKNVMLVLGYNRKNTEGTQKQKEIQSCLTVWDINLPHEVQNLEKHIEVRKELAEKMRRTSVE

[2] = system: phosphorylation of MYPT at Thr850; experiment: MYPT Thr850 phosphorylation in HEK-293 cells; assay type: cell-based, human; conditions: 10 μM, 1 h; HEK-293 cells with or without G14V-Rho
[3] = system: ERM protein phosphorylation (site equivalent to Thr567 of ezrin); experiment: ERM protein phosphorylation in HEK-293 cells; assay type: cell-based, human; conditions: 10 μM, 1 h; in the presence or absence of G14V-Rho
[4] = molecular target: T2, SGK1 (Homo sapiens, UniProt O00141); experiment: Kinase profiling panel; assay type: biochemical; conditions: read-out: percentage of kinase activity compared with control
T2 sequence (O00141 1-431): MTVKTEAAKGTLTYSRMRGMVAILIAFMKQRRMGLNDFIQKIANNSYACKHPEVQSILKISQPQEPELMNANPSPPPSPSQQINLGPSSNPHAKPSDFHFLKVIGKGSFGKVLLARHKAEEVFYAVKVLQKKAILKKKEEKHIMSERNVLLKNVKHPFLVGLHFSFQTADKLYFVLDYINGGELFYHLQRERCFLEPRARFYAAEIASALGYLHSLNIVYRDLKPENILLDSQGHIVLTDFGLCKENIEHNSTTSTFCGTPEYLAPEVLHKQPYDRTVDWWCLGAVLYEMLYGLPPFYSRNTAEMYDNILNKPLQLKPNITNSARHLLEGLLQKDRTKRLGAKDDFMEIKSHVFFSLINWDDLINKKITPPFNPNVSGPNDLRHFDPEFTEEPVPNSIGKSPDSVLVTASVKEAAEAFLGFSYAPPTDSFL

[5] = molecular target: PKCα (Homo sapiens, UniProt P17252); experiment: Kinase profiling panel; assay type: biochemical; conditions: read-out: percentage of kinase activity compared with control
[6] = molecular target: SmMLCK (Homo sapiens, UniProt Q15746); experiment: Kinase profiling panel; assay type: biochemical; conditions: read-out: percentage of kinase activity compared with control
[7] = molecular target: PHK (Homo sapiens, UniProt Q16816); experiment: Kinase profiling panel; assay type: biochemical; conditions: read-out: percentage of kinase activity compared with control
PHK, sequence (Q16816 whole entry): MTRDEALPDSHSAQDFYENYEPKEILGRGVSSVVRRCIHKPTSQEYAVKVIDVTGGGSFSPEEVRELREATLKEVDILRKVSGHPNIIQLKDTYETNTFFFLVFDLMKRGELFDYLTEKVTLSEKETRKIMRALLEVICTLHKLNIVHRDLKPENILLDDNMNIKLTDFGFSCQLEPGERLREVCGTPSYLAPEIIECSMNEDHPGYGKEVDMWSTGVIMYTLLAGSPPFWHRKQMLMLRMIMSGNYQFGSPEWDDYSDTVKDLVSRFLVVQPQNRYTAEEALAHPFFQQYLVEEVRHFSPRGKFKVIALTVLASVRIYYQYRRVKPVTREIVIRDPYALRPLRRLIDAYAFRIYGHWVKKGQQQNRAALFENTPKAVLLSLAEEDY

[8] = molecular target: Aurora B kinase (Homo sapiens, UniProt Q96GD4); experiment: Kinase profiling panel; assay type: biochemical; conditions: read-out: percentage of kinase activity compared with control
Aurora B kinase, sequence (Q96GD4 whole entry): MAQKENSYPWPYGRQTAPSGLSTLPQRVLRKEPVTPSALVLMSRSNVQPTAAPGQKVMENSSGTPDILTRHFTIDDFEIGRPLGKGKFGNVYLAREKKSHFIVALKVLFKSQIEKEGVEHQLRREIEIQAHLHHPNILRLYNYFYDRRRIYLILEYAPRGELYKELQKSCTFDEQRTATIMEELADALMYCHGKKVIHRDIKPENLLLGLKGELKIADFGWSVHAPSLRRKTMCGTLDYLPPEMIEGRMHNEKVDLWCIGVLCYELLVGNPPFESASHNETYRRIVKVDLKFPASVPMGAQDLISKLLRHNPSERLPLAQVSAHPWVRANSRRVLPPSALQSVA

[9] = system: AMPK; experiment: Kinase profiling panel; assay type: biochemical; conditions: 0.1 μM inhibitor
[10] = molecular target: T3, BRSK2 (Homo sapiens, UniProt Q8IWQ3); experiment: Kinase profiling panel; assay type: biochemical; conditions: read-out: percentage of kinase activity compared with control
T3 sequence (Q8IWQ3 1-736): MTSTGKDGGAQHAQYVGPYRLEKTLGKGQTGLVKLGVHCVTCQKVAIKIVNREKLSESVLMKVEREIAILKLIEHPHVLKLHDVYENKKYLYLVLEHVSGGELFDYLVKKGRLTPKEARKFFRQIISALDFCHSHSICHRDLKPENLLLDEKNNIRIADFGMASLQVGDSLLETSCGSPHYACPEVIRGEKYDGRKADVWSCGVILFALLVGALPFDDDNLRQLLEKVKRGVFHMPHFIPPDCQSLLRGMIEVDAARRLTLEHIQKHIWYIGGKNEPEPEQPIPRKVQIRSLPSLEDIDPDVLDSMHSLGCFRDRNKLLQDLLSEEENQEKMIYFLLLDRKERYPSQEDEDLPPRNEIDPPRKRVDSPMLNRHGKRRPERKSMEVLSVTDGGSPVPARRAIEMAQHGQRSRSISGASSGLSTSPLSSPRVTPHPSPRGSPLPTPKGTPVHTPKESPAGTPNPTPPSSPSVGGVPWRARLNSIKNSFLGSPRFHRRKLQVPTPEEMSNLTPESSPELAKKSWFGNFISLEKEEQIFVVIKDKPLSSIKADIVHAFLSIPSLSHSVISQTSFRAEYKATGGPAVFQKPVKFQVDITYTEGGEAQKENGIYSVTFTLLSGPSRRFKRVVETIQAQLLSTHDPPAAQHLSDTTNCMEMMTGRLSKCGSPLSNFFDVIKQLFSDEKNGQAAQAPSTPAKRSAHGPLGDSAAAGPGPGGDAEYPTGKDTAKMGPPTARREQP

[11] = molecular target: CK2 (Homo sapiens, UniProt P68400); experiment: Kinase profiling panel; assay type: biochemical; conditions: read-out: percentage of kinase activity compared with control
CK2, sequence (P68400 whole entry): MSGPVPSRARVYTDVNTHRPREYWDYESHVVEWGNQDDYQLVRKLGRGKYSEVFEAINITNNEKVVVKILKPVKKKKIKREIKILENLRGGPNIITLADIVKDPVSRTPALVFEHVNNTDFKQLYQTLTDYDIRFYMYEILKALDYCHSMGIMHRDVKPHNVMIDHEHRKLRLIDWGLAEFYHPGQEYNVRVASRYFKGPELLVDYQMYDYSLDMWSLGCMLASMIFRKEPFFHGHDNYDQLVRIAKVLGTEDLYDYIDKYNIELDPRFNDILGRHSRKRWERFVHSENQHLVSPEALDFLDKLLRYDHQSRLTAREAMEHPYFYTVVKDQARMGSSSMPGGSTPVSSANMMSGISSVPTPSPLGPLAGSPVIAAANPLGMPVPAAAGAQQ

[12] = molecular target: PAK4 (Homo sapiens, UniProt O96013); experiment: Kinase profiling panel; assay type: biochemical; conditions: read-out: percentage of kinase activity compared with control
PAK4, sequence (O96013 whole entry): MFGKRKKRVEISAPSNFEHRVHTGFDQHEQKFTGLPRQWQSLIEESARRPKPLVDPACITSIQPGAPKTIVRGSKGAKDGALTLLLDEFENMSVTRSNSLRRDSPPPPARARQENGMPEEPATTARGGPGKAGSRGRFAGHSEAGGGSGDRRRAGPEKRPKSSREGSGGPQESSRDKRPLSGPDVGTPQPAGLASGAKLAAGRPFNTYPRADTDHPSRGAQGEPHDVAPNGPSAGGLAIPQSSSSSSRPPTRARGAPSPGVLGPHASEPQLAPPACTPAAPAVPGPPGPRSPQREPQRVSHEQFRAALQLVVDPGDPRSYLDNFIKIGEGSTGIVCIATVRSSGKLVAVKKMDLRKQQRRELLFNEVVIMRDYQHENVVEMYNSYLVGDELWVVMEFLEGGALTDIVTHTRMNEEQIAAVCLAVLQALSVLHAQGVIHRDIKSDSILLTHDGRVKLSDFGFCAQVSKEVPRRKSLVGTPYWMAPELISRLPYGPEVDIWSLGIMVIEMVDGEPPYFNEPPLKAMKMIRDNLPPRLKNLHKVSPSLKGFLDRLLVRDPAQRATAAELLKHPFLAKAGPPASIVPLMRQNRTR

[13] = molecular target: T4, GCK (Homo sapiens, UniProt Q12851); experiment: Kinase profiling panel; assay type: biochemical; conditions: read-out: percentage of kinase activity compared with control
T4 sequence (Q12851 1-820): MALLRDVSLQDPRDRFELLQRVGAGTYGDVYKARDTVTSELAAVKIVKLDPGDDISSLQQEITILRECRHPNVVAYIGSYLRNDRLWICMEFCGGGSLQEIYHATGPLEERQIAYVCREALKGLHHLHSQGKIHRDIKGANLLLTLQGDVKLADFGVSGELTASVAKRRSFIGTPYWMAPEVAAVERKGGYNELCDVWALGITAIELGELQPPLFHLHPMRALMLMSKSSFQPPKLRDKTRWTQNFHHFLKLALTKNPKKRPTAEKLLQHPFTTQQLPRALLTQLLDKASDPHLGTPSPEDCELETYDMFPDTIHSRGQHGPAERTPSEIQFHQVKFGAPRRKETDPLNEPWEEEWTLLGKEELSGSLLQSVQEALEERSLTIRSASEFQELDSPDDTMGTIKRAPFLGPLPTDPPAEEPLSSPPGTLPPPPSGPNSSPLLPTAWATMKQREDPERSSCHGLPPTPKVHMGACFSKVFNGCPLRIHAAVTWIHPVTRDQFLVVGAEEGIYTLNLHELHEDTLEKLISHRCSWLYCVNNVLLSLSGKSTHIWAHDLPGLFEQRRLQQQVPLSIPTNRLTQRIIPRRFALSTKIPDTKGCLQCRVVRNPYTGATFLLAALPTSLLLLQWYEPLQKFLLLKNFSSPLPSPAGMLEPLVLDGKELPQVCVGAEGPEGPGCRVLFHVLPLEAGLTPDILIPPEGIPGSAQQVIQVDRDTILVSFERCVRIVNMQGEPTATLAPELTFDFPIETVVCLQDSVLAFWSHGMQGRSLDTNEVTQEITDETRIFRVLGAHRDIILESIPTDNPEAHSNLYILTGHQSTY

[14] = molecular target: T5, TTK (Homo sapiens, UniProt P33981); experiment: Kinase profiling panel; assay type: biochemical; conditions: read-out: percentage of kinase activity compared with control
T5 sequence (P33981 1-857): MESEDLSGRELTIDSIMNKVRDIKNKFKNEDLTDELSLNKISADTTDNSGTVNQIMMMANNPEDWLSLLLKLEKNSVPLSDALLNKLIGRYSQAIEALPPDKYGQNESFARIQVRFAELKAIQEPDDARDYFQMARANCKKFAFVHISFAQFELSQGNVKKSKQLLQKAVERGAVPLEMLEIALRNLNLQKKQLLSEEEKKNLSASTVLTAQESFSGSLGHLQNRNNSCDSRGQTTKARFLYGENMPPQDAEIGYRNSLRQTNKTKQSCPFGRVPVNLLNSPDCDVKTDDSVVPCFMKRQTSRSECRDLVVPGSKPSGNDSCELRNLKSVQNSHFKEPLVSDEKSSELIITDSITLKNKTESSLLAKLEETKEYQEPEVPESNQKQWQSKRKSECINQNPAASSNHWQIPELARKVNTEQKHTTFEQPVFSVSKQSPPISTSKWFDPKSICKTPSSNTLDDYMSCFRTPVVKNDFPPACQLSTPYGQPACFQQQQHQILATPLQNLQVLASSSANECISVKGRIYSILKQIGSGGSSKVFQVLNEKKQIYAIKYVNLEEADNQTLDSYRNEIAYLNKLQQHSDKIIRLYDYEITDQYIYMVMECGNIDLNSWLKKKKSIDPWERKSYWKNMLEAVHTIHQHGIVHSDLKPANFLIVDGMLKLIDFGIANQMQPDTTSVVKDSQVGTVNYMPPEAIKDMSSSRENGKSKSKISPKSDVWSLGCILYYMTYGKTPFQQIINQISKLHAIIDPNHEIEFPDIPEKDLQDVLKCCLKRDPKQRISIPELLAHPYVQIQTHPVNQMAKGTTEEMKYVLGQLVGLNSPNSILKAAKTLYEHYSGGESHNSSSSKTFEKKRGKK

[15] = molecular target: FGFR1 (Homo sapiens, UniProt P11362); experiment: Kinase profiling panel; assay type: biochemical; conditions: read-out: percentage of kinase activity compared with control
[16] = molecular target: IRR (Homo sapiens, UniProt P14616); experiment: Kinase profiling panel; assay type: biochemical; conditions: read-out: percentage of kinase activity compared with control
[17] = molecular target: IGF-1R (Homo sapiens, UniProt P08069); experiment: Kinase profiling panel; assay type: biochemical; conditions: read-out: percentage of kinase activity compared with control
[18] = molecular target: endogenous LRRK2 from Swiss-3T3 cells (Mus musculus, UniProt Q5S006); experiment: Kinase assay of immunoprecipitated endogenous LRRK2 with Nictide; assay type: biochemical; conditions: Swiss-3T3 immunoprecipitates, Nictide substrate
endogenous LRRK2 from Swiss-3T3 cells, sequence (Q5S006 whole entry): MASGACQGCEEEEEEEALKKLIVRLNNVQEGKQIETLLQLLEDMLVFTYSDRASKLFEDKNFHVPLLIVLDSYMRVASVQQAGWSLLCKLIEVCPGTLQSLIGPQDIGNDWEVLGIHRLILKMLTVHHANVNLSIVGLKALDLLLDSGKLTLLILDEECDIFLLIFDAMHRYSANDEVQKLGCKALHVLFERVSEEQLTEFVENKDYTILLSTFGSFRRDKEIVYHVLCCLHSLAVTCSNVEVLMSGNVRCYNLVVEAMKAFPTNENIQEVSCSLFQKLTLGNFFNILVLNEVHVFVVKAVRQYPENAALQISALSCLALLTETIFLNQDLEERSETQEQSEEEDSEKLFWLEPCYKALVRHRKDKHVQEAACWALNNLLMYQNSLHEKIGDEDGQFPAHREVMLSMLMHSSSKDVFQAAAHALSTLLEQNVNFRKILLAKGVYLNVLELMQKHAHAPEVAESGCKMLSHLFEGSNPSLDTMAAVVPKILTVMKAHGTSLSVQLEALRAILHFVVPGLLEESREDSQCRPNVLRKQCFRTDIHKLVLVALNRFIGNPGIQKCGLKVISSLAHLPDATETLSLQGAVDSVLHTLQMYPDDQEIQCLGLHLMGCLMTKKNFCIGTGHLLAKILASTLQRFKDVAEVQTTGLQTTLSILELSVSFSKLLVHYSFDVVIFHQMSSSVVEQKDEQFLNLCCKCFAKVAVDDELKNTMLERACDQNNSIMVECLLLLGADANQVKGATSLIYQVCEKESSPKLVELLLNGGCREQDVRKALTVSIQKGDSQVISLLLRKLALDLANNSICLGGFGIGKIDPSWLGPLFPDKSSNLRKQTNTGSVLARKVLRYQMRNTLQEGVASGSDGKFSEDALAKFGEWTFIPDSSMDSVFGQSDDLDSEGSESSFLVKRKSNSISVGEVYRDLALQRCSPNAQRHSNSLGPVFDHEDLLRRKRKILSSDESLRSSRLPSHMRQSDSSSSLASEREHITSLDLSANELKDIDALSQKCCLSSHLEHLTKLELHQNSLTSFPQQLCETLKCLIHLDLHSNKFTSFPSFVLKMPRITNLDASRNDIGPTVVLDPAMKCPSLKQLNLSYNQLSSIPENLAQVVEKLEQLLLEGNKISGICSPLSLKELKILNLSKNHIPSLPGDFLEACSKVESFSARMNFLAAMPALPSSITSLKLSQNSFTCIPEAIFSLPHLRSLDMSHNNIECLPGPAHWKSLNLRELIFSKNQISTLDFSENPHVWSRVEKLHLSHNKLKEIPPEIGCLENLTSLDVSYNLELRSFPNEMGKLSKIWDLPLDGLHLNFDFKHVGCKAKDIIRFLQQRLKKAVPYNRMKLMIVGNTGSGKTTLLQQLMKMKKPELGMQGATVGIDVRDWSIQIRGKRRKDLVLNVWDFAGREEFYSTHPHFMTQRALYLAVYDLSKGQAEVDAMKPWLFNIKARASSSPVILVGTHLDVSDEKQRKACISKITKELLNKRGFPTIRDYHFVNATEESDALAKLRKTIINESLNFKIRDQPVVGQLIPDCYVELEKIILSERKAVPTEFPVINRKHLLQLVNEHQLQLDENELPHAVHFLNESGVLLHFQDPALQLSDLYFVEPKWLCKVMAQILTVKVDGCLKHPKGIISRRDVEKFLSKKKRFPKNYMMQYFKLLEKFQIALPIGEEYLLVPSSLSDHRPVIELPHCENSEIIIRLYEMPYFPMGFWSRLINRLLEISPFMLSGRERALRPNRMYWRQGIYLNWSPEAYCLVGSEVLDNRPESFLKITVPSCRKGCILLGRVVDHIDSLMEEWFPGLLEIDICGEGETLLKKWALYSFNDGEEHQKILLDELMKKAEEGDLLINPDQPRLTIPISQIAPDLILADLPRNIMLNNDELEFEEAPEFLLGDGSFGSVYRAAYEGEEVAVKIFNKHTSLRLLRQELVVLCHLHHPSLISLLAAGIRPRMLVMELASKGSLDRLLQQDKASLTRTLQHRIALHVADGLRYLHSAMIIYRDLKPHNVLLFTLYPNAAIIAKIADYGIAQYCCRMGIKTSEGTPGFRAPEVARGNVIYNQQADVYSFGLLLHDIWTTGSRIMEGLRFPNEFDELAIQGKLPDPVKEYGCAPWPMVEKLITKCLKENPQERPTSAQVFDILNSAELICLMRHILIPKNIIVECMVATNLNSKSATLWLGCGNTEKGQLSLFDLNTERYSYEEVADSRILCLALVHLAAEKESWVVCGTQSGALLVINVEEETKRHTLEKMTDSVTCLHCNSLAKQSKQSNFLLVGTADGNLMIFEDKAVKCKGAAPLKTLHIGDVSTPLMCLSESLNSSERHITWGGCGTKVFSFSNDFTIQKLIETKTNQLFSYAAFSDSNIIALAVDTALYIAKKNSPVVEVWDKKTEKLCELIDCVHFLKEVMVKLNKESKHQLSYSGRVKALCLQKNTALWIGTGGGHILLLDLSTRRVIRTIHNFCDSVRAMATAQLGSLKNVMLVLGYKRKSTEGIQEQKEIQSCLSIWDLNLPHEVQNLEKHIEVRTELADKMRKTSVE

[19] = system: panel of 85 protein kinases; experiment: Selectivity over kinase panel; assay type: biochemical; conditions: 1 μM; out of the 85 kinases profiled
[20] = system: LRRK2; conditions: cited from earlier work

In the case of `O=S(=O)(c1cccc2cnccc12)N1CCCNCC1` [HA-1077, fasudil], the “inhibition of LRRK2[G2019S] (in words)” value [1] is reported as “weakly”.
For `C[C@@H](N)[C@H]1CC[C@H](C(=O)Nc2ccncc2)CC1` [Y-27632], the “effect on phosphorylation of MYPT at Thr850” value (from here on “effect on phosphorylation”) [2] was “ablated phosphorylation” and the “effect on ERM protein phosphorylation” value [3] was “did not inhibit”.
In the case of `O=S(=O)(NCCNCC=Cc1ccc(Br)cc1)c1cccc2cnccc12` [H-89, N-[2-(p-bromocinnamylamino)ethyl]-5-isoquinolinesulfonamide], the “inhibition of LRRK2[G2019S] (in words)” value [1] is reported as “weakly”.
In the case of `CCN(CC)CCNC(=O)c1c(C)[nH]c(/C=C2\C(=O)Nc3ccc(F)cc32)c1C` [Sunitinib, sunitinib], the remaining activity at 1 µM [4] is reported as 26 ± 5%, the remaining activity at 1 µM [5] is reported as 77 ± 9% and the remaining activity at 1 µM [6] is reported as 26 ± 3%. For the same compound, the remaining activity at 0.1 µM [7] was 11 ± 1%, the remaining activity at 0.1 µM [8] was 72 ± 5% and the “percentage of kinase activity compared with control” value [9] was 51 ± 3%. It also gave a remaining activity at 1 µM [10] of 40 ± 6%, a remaining activity at 1 µM [11] of 72 ± 1% and a remaining activity at 1 µM [12] of 72 ± 5%. The remaining activity at 1 µM [13] was 11 ± 1%, the remaining activity at 1 µM [14] was 72 ± 6% and the remaining activity at 0.1 µM [15] was 77 ± 2%. For the same compound, the remaining activity at 1 µM [16] was 77 ± 24%, the remaining activity at 1 µM [17] was 33 ± 6% and the “effect on ERM protein phosphorylation” value [3] was “did not inhibit”. The “effect on protein kinase activity in LRRK2 immunoprecipitate” value [18] was “suppressed”, the “number of kinases significantly inhibited” value [19] was 12 and the IC50 [20] was […].
In the case of `CC1=C(C(=O)Nc2cc3cn[nH]c3cc2F)C(c2ccc(C(F)(F)F)cc2)CC(=O)N1` (stereo not shown) [GSK429286A], the “inhibition of LRRK2 at high dose (in words)” value ([1]; doses as high as 30 μM) is reported as “does not significantly inhibit”, the “effect on phosphorylation” value [2] is reported as “ablated phosphorylation” and the “effect on ERM protein phosphorylation” value [3] is reported as “did not inhibit”.
With `CCn1c(-c2nonc2N)nc2cnc(Oc3cccc(NC(=O)c4ccc(OCCN5CCOCC5)cc4)c3)cc21` [GSK269962A] the “effect on phosphorylation” value [2] was “ablated phosphorylation”, the “effect on ERM protein phosphorylation” value [3] was “did not inhibit” and the “number of kinases significantly inhibited” value [19] was “seven”.
For `Cc1cncc2cccc(S(=O)(=O)N3CCCNC[C@@H]3C)c12` [H-1152, (S)-(+)-2-methyl-1-[(4-methyl-5-isoquinoline)sulfonyl]-homopiperazine], the “effect on phosphorylation” value [2] was “ablated phosphorylation”, the “effect on ERM protein phosphorylation” value [3] was “did not inhibit” and the “effect on protein kinase activity in LRRK2 immunoprecipitate” value [18] was “suppressed”.

— paper PMC3759966 (The Biochemical journal, 2009)
